From ChEMBL document CHEMBL1909046, “DrugMatrix in vitro pharmacology data” come the findings set out here.

SMILES strings stand for the structures.

Assay [1] in a line: DRUGMATRIX: Potassium Channel [KATP] radioligand binding (ligand: [3H] Glyburide). In kind it is cell membranes, Membrane. The following applies: hit-t15; Not Active = under 50% inhibition at 10 µM.
Assay [2] has as its target T1, Alpha-1D adrenergic receptor (Homo sapiens, UniProt P25100). Also: in other assays of this panel Not Active means under 50% inhibition at 10 µM.
T1 sequence (P25100 whole entry): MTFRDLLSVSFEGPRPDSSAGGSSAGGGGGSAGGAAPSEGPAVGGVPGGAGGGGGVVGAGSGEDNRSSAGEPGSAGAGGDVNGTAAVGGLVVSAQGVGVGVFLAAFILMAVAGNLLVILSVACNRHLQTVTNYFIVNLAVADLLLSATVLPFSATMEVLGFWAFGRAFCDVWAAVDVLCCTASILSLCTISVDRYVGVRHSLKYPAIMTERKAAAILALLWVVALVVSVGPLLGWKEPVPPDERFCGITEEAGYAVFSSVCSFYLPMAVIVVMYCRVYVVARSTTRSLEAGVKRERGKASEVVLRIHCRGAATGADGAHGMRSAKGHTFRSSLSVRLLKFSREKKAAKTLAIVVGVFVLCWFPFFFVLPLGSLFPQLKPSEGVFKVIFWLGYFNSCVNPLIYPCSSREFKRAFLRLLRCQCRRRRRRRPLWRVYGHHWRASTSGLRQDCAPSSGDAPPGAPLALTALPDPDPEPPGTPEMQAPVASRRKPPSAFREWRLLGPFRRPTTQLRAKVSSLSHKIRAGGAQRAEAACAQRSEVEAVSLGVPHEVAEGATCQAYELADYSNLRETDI
In kind it is cell membranes, HEK293, Membrane. The following applies: hek293.

The next assay deals with D(1A) dopamine receptor (Homo sapiens, UniProt P21728). Briefly: DRUGMATRIX: Dopamine D1 radioligand binding (ligand: [3H] SCH-23390). The following applies: cho; Not Active = under 50% inhibition at 10 µM. In kind it is cell membranes, CHO, Membrane.
Sequence of D(1A) dopamine receptor (P21728 whole entry): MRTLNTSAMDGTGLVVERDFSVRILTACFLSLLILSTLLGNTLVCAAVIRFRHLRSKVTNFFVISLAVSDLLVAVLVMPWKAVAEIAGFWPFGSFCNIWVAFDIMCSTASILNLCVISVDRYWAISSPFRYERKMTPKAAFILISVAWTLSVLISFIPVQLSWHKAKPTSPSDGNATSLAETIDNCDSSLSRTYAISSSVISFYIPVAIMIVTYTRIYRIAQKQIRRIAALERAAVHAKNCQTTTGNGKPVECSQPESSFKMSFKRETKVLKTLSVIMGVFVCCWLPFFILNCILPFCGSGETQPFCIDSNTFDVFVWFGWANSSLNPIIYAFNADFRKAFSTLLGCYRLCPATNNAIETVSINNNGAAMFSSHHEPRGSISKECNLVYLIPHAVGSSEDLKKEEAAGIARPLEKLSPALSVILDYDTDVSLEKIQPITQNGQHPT
A short description of assay [3]: DRUGMATRIX: Atrial Natriuretic Factor (ANF) radioligand binding (ligand: [125I] ANF (rat)). The format is cell membranes, Cavia porcellus, Dunkin-Hartley, Adrenal gland, Membrane. The following applies: Not Active = under 50% inhibition at 10 µM.
In a further assay the target is Mu-type opioid receptor (Homo sapiens, UniProt P35372). Briefly: DRUGMATRIX: Opiate mu (OP3, MOP) radioligand binding (ligand: [3H] Diprenorphine). The following applies: cho-k1; Not Active = under 50% inhibition at 10 µM. The format is cell membranes, CHO-K1, Membrane.
Sequence of Mu-type opioid receptor (P35372 whole entry): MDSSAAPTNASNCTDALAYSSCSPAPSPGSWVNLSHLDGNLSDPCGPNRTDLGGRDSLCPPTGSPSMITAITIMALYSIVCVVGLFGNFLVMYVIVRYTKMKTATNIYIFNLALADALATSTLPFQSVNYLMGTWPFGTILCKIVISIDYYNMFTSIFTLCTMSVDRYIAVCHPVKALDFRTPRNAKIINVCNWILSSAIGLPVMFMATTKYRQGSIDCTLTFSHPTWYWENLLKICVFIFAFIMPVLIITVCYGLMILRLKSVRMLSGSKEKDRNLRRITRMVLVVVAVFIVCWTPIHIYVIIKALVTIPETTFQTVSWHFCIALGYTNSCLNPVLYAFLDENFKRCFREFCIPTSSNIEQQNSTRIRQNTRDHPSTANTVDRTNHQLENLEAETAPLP
The target in assay [4] is Tyrosine-protein kinase Fyn (Homo sapiens, UniProt P06241). As to the kind of experiment: biochemical. The format is cell-based, Insect cells.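 Also: enzymatic inhibition of Fyn kinase activity measured with Poly(Glu:Tyr) as the phosphorylation substrate; in other assays of this panel Not Active means under 50% inhibition at 10 µM.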
Sequence of Tyrosine-protein kinase Fyn (P06241 whole entry): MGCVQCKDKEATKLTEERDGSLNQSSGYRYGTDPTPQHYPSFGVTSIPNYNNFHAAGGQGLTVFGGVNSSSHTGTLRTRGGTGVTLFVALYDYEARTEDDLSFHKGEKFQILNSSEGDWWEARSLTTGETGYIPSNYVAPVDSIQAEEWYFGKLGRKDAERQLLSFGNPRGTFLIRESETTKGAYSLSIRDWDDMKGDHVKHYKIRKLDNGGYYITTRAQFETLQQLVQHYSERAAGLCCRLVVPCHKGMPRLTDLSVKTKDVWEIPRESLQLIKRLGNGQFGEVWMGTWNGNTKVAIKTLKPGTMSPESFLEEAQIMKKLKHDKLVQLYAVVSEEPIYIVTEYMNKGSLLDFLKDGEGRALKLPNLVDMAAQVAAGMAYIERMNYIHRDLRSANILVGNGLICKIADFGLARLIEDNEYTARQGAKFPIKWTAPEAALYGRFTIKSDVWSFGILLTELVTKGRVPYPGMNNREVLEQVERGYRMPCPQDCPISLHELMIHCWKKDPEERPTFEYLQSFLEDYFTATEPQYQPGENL
Another assay addresses Insulin receptor (Rattus norvegicus, UniProt P15127). In kind it is cell membranes, Wistar, Liver, Membrane.

Sequence of Insulin receptor (P15127 27-759 limits assumed): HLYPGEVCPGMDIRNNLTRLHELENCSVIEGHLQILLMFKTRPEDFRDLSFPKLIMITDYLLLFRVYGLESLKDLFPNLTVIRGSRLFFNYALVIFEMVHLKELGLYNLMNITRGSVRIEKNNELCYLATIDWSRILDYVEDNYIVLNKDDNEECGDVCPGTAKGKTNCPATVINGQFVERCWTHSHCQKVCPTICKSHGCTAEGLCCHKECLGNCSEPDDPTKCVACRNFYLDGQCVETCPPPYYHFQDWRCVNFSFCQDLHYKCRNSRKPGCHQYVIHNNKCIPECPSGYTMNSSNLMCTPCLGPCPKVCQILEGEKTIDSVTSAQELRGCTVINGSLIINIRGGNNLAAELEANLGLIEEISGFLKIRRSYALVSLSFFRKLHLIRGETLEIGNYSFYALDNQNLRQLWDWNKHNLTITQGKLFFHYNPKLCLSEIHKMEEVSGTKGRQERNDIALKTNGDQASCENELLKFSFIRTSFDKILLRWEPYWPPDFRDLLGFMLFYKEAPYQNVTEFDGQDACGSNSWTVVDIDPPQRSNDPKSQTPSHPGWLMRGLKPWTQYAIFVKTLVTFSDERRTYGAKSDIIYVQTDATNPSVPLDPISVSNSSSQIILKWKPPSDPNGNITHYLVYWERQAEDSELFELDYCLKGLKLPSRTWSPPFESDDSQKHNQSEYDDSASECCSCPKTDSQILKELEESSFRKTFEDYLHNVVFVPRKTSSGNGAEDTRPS
Sequence of Insulin receptor (P15127 764-1383 limits assumed): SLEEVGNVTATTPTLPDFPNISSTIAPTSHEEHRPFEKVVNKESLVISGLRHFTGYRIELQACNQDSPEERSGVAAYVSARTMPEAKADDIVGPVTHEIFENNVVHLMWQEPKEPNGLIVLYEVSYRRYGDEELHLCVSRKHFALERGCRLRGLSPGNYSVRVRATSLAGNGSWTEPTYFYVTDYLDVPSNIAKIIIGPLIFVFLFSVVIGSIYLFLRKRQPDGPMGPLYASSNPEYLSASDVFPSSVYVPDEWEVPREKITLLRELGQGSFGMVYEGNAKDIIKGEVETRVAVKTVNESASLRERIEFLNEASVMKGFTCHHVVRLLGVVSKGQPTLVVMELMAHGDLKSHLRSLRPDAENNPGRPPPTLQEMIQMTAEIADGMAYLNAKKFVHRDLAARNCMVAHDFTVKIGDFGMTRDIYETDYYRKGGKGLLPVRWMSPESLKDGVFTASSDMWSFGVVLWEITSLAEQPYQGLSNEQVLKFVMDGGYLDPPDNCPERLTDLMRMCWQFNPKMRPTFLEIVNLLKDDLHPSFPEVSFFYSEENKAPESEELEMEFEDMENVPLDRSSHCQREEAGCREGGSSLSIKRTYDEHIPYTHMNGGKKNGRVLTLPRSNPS

For `N=C(N)NC(=O)Cc1c(Cl)cccc1Cl` [GUANFACINE], the IC50 result (in assay [1]; in assay [2]; at D(1A) dopamine receptor; in assay [3]; at Mu-type opioid receptor; in assay [4] (insect cells)) was “Not Active” each time. The IC50 entry against Insulin receptor is reported as “Not Active”. Further, the Ki result in assay [1] and in assay [3] was “Not Active” in each case.
Regarding `Oc1c(Cl)cc(Cl)c(Cl)c1Cc1c(O)c(Cl)cc(Cl)c1Cl` [HEXACHLOROPHENE], the IC50 entry is “Not Active” in assay [1]; “Not Active” in assay [2]; “Not Active” on D(1A) dopamine receptor; “Not Active” in assay [3]; “Not Active” on Mu-type opioid receptor; 3.48 µM in assay [4] (read-out: IC50). For the same molecule, the IC50 result at Insulin receptor is listed as “Not Active”. Further, the Ki result in assay [1] and in assay [3] was “Not Active” each time.
With `NNc1nncc2ccccc12` [HYDRALAZINE], the IC50 entry (in assay [1]; in assay [2]; on D(1A) dopamine receptor; in assay [3]; at Mu-type opioid receptor; in assay [4] (insect cells)) was “Not Active” each time. In addition, the IC50 entry at Insulin receptor is given as “Not Active”. The Ki result in assay [1] and in assay [3] was “Not Active” throughout.
`CC(=O)[C@@]1(O)CC[C@H]2[C@@H]3CCC4=CC(=O)CC[C@]4(C)[C@H]3CC[C@@]21C` [HYDROXYPROGESTERONE]: the IC50 entry (in assay [1]; in assay [2]; on D(1A) dopamine receptor; in assay [3]; on Mu-type opioid receptor; in assay [4] (insect cells)) was “Not Active” in each case. Further, on Insulin receptor, the IC50 result was “Not Active”. Further, the Ki entry in assay [1] and in assay [3] was “Not Active” in each case.
Turning to `COC1=C(OC)C(=O)C(CCCCCCCCCCO)=C(C)C1=O` [IDEBENONE], the IC50 entry (in assay [1]; in assay [2]; at D(1A) dopamine receptor; in assay [3]; on Mu-type opioid receptor; in assay [4] (insect cells)) was “Not Active” each time. In addition, the IC50 entry on Insulin receptor was “Not Active”. Moreover, the Ki result in assay [1] and in assay [3] was “Not Active” throughout.
For `CC(C)NNC(=O)c1ccncc1` [IPRONIAZID], the half-inhibitory concentration (IC50) result (in assay [1]; in assay [2]; on D(1A) dopamine receptor; in assay [3]; on Mu-type opioid receptor; in assay [4] (insect cells)) was “Not Active” throughout. Besides, on Insulin receptor, the IC50 entry is on record as “Not Active”. Besides, the Ki result in assay [1] and in assay [3] was “Not Active” in each case.
With `Cc1c(OCC(F)(F)F)ccnc1C[S+]([O-])c1nc2ccccc2[nH]1` (stereo unspecified) [LANSOPRAZOLE], the half-maximal inhibitory concentration (IC50) result (in assay [1]; in assay [2]; at D(1A) dopamine receptor; in assay [3]; at Mu-type opioid receptor; in assay [4] (insect cells)) was “Not Active” each time. Also, the IC50 entry on Insulin receptor was “Not Active”. In addition, the Ki result in assay [1] and in assay [3] was “Not Active” throughout.
`O=c1cc(N2CCOCC2)oc2c(-c3ccccc3)cccc12` [LY-294002]: the IC50 entry (in assay [1]; in assay [2]; at D(1A) dopamine receptor; in assay [3]; on Mu-type opioid receptor; in assay [4] (insect cells)) was “Not Active” each time. Besides, the IC50 result on Insulin receptor is “Not Active”. For the same molecule, the Ki entry in assay [1] and in assay [3] was “Not Active” in each case.
As to `COc1ccc2[nH]cc(CCNC(C)=O)c2c1` [MELATONIN], the IC50 result (in assay [1]; in assay [2]; at D(1A) dopamine receptor; in assay [3]; at Mu-type opioid receptor; in assay [4] (insect cells)) was “Not Active” each time. Besides, the IC50 entry against Insulin receptor is “Not Active”. The Ki result in assay [1] and in assay [3] was “Not Active” in each case.
